≈ marks a conversion by molar mass, not a printed value.
Key:
Type in all cases: functional
Enterococcus faecalis = assay: Antibacterial activity against vancomycin-resistant Enterococcus faecalis ATCC 51299
Escherichia coli = assay: Antibacterial activity against Escherichia coli ATCC 25922
Staphylococcus aureus = assay: Antibacterial activity against methicillin-resistant Staphylococcus aureus ATCC 33591

| SMILES | MBC (Enterococcus faecalis) [µg/mL] | MIC (Enterococcus faecalis) [µg/mL] | MBC (Escherichia coli) [µg/mL] | MIC (Escherichia coli) [µg/mL] | MBC (Staphylococcus aureus) [µg/mL] | MIC (Staphylococcus aureus) [µg/mL] |
| --- | --- | --- | --- | --- | --- | --- |
| CC(C)Cc1ccc(C(C)CN2C(=N)N([C@H](Cc3ccc4ccccc4c3)CN3CCCC3CN3C(N)=NC[C@@H]3Cc3ccccc3)C[C@@H]2CC2CCCCC2)cc1 (stereo partly specified) | > 10 | < 2.5 | > 10 | > 10 | < 2.5 | < 2.5 |
| C[C@H]1CN=C(N)N1CC1CCCN1C[C@@H](Cc1ccc2ccccc2c1)N1C[C@@H](CC2CCCCC2)N(CCc2cc(C(F)(F)F)cc(C(F)(F)F)c2)C1=N (stereo partly specified) | < 2.5 | < 2.5 | > 10 | > 10 | < 2.5 | < 2.5 |
| CCCC[C@@H]1CN([C@H](CC2CCCCC2)CN2CCCC2CN2C(N)=NC[C@@H]2C)C(=N)N1CC(C)c1ccc(CC(C)C)cc1 (stereo partly specified) | > 10 | < 2.5 | > 10 | > 10 | 2.5 (≈ 4.03 µM) | < 2.5 |
| CC(C)Cc1ccc(C(C)CN2C(=N)N([C@@H](CC3CCCCC3)CN3CCCC3CN3C(N)=NC[C@@H]3Cc3ccccc3)C[C@H]2CC2CCCCC2)cc1 (stereo partly specified) | < 2.5 | < 2.5 | > 10 | > 10 | < 2.5 | < 2.5 |
| CCCC[C@@H]1CN([C@H](Cc2ccc3ccccc3c2)CN2CCCC2CN2C(N)=NC[C@@H]2Cc2ccccc2)C(=N)N1CCc1cc(C(F)(F)F)cc(C(F)(F)F)c1 (stereo partly specified) | > 10 | < 2.5 | > 10 | > 10 | < 2.5 | < 2.5 |
| C[C@H]1CN=C(N)N1CC1CCCN1C[C@H](CC1CCCCC1)N1C[C@@H](CC2CCCCC2)N(CCc2cc(C(F)(F)F)cc(C(F)(F)F)c2)C1=N (stereo partly specified) | > 10 | < 2.5 | > 10 | > 10 | < 2.5 | < 2.5 |
| CC(C)Cc1ccc(C(C)CN2C(=N)N([C@H](Cc3ccc4ccccc4c3)CN3CCCC3CN3C(N)=NC[C@@H]3C)C[C@H]2CC2CCCCC2)cc1 (stereo partly specified) | < 2.5 | < 2.5 | > 10 | > 10 | < 2.5 | < 2.5 |
| CCCC[C@@H]1CN([C@@H](CC2CCCCC2)CN2CCCC2CN2C(N)=NC[C@@H]2C)C(=N)N1CC(C)c1ccc(CC(C)C)cc1 (stereo partly specified) | > 10 | < 2.5 | > 10 | > 10 | 2.5 (≈ 4.03 µM) | 2.5 (≈ 4.03 µM) |
| CC(C)Cc1ccc(C(C)CN2C(=N)N([C@H](Cc3ccc4ccccc4c3)CN3CCCC3CN3C(N)=NC[C@@H]3Cc3ccccc3)C[C@H]2CC2CCCCC2)cc1 (stereo partly specified) | > 10 | < 2.5 | > 10 | > 10 | 2.5 (≈ 3.2 µM) | < 2.5 |
| CC(C)Cc1ccc(C(C)CN2C(=N)N([C@H](Cc3ccc4ccccc4c3)CN3CCCC3CN3C(N)=NC[C@@H]3C)C[C@@H]2CC2CCCCC2)cc1 (stereo partly specified) | 2.5 (≈ 3.55 µM) | > 10 | > 10 | > 10 | 2.5 (≈ 3.55 µM) | 2.5 (≈ 3.55 µM) |
| CCCC[C@@H]1CN([C@H](Cc2ccc3ccccc3c2)CN2CCCC2CN2C(N)=NC[C@@H]2C)C(=N)N1CC(C)c1ccc(CC(C)C)cc1 (stereo partly specified) | 2 (≈ 3.01 µM) | < 2.5 | 5 (≈ 7.53 µM) | 5 (≈ 7.53 µM) | 2.5 (≈ 3.77 µM) | 2.5 (≈ 3.77 µM) |

From ChEMBL document CHEMBL1146892, “Pyrrolidine bis-cyclic guanidines with antimicrobial activity against drug-resistant Gram-positive pathogens identified from a mixture-based combinatorial library” (2006)
